According to ChEMBL document CHEMBL3877320, “Synthesis of new analogs of AKBA and evaluation of their anti-inflammatory activities” (Bioorg Med Chem, 2017):
≈ marks a conversion by molar mass, not a printed value.

Experiment: Inhibition of potato 5-lipoxygenase using linoleic acid as substrate preincubated for 2 mins followed by substrate addition measured for 120 secs
Design: species or system Solanum tuberosum

SMILES	IC50 [µg/mL]
C[C@H]1[C@H](C)CC[C@]2(C)CC[C@]3(C)C(=CC(=O)[C@@H]4[C@@]5(C)CC(C=O)C(=O)[C@](C)(C(N)=O)[C@@H]5CC[C@]43C)[C@H]12 (some centres undefined)	> 100
C[C@H]1[C@H](C)CC[C@]2(C)CC[C@]3(C)C(=CC(=O)[C@@H]4[C@@]5(C)Cc6cnoc6[C@](C)(C(=O)N6CCN(C)CC6)[C@@H]5CC[C@]43C)[C@H]12	> 100
C[C@H]1[C@H](C)CC[C@]2(C)CC[C@]3(C)C(=CC(=O)[C@@H]4[C@@]5(C)Cc6cn[nH]c6[C@](C)(C(=O)N6CCN(C)CC6)[C@@H]5CC[C@]43C)[C@H]12	> 100
CC(=O)O[C@@H]1CC[C@@]2(C)[C@@H](CC[C@]3(C)[C@@H]2C(=O)C=C2[C@@H]4[C@@H](C)[C@H](C)CC[C@]4(C)CC[C@]23C)[C@@]1(C)C(=O)O [AKBA]	94.6 (≈ 185 µM)
COC(=O)[C@@]1(C)c2oncc2C[C@@]2(C)[C@H]1CC[C@]1(C)[C@@H]2C(=O)C=C2[C@@H]3[C@@H](C)[C@H](C)CC[C@]3(C)CC[C@]21C	> 100
C[C@H]1[C@H](C)CC[C@]2(C)CC[C@]3(C)C(=CC(=O)[C@@H]4[C@@]5(C)CC(C=O)C(=O)[C@@H](C)[C@@H]5CC[C@]43C)[C@H]12 (some centres undefined)	44.14 (≈ 97.5 µM)
C[C@H]1[C@H](C)CC[C@]2(C)CC[C@]3(C)C(=CC(=O)[C@@H]4[C@@]5(C)Cc6cn[nH]c6[C@](C)(C(=O)N6CCNCC6)[C@@H]5CC[C@]43C)[C@H]12	> 100
C[C@H]1[C@H](C)CC[C@]2(C)CC[C@]3(C)C(=CC(=O)[C@@H]4[C@@]5(C)CC(C=O)C(=O)[C@](C)(C(=O)Nc6ccccc6)[C@@H]5CC[C@]43C)[C@H]12 (some centres undefined)	19.53 (≈ 34.2 µM)
C[C@H]1[C@H](C)CC[C@]2(C)CC[C@]3(C)C(=CC(=O)[C@@H]4[C@@]5(C)CC(C=O)C(=O)[C@](C)(C(=O)N6CCOCC6)[C@@H]5CC[C@]43C)[C@H]12 (some centres undefined)	> 100

Further lines, results first:

IC50 [µg/mL]	SMILES
> 100	COC(=O)[C@@]1(C)C(=O)C(C#N)=C[C@]2(C)[C@H]3C(=O)C=C4[C@@H]5[C@@H](C)[C@H](C)CC[C@]5(C)CC[C@@]4(C)[C@]3(C)CC[C@@H]12
20.31 (≈ 36.2 µM)	C[C@H]1[C@H](C)CC[C@]2(C)CC[C@]3(C)C(=CC(=O)[C@@H]4[C@@]5(C)Cc6cnoc6[C@](C)(C(=O)N6CCCCC6)[C@@H]5CC[C@]43C)[C@H]12
> 100	C[C@H]1[C@H](C)CC[C@]2(C)CC[C@]3(C)C(=CC(=O)[C@@H]4[C@@]5(C)CC(C=O)C(=O)[C@](C)(C(=O)N6CCCCC6)[C@@H]5CC[C@]43C)[C@H]12 (some centres undefined)
> 100	C[C@H]1[C@H](C)CC[C@]2(C)CC[C@]3(C)C(=CC(=O)[C@@H]4[C@@]5(C)Cc6cn[nH]c6[C@](C)(C(=O)O)[C@@H]5CC[C@]43C)[C@H]12
> 100	C[C@H]1[C@H](C)CC[C@]2(C)CC[C@]3(C)C(=CC(=O)[C@@H]4[C@@]5(C)Cc6cn[nH]c6[C@](C)(C(=O)N6CCCCC6)[C@@H]5CC[C@]43C)[C@H]12
